Experimental data published in patent publication EP0326329B1, “Quinazoline derivatives useful as insecticides” (Dow AgroSciences LLC, priority 1988, dated 1989).

tested on: Pseudoperonospora cubensis (downy mildew); test: Greenhouse Test 1, foliar spray fungicide screen (DOWN MDEW), host squash; type: in vivo; details: disease control rating, 400 ppm (+++ at 100 ppm)

SMILES | DOWN MDEW
CC(C)Oc1cccc(CCOc2ncnc3ccccc23)c1 [Example 146, 4-[2-[3-(1-methylethoxy)phenyl]ethoxy]quinazoline] | +++ (+++ = 90-100% control at 100 ppm)
COc1cc(CCOc2ncnc3ccccc23)ccc1O [Example 147] | +++ (+++ = 90-100% control at 100 ppm)
C=CC(CCc1ccccc1)Oc1ncnc2ccccc12 (centres unmarked) [Example 148, 4-[(1-benzyl-3-buten-2-yl)oxy]quinazoline] | ++ (++ = 90-100% control at 400 ppm)
CC(C)(C)c1ccc(CCCOc2ncnc3c(F)cccc23)cc1 [Example 149, 8-fluoro-4-[3-[4-(1,1-dimethylethyl)phenyl]propoxy]quinazoline] | - (- = 0-19% control at 400 ppm)
c1ccc(Oc2ccc(CCCOc3ncnc4ccccc34)cc2)cc1 [Example 151, 4-[3-(4-phenoxyphenyl)propoxy]quinazoline] | - (- = 0-19% control at 400 ppm)
CC(C)c1ccc(CCCOc2ncnc3c(F)cccc23)cc1 [Example 152, 8-fluoro-4-[3-[4-(1-methylethyl)phenyl]propoxy]quinazoline] | + (+ = 20-89% control at 400 ppm)

tested on: Twospotted spider mites (Tetranychus urticae Koch); test: Mite/insect screen, sprayed squash cotyledons (SM); type: in vivo; details: Tetranychus urticae, percent mortality; spray rate 200 ppm; read-out: SM RESULTS %
In short: (§1)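 Mortality and phytotoxicity read after standard exposure periods on sprayed squash: cotyledons for melon aphids and twospotted spider mites, excised leaves placed with southern armyworm larvae. Spray solutions were water dilutions of acetone/alcohol stocks containing TOXIMUL R and S emulsifiers, applied to runoff at 10 psi and air-dried one hour.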

SMILES | mortality at 200 ppm
CC(C)Oc1cccc(CCOc2ncnc3ccccc23)c1 [Example 146, 4-[2-[3-(1-methylethoxy)phenyl]ethoxy]quinazoline] | 100%
COc1cc(CCOc2ncnc3ccccc23)ccc1O [Example 147] | 0%
CC(C)(C)c1ccc(CCCOc2ncnc3c(F)cccc23)cc1 [Example 149, 8-fluoro-4-[3-[4-(1,1-dimethylethyl)phenyl]propoxy]quinazoline] | 0%
c1ccc(Oc2ccc(CCCOc3ncnc4ccccc34)cc2)cc1 [Example 151, 4-[3-(4-phenoxyphenyl)propoxy]quinazoline] | 0%
CC(C)c1ccc(CCCOc2ncnc3c(F)cccc23)cc1 [Example 152, 8-fluoro-4-[3-[4-(1-methylethyl)phenyl]propoxy]quinazoline] | 90%

same assay, conditions: Tetranychus urticae, percent mortality; spray rate 400 ppm; read-out: SM RESULTS %

SMILES | mortality at 400 ppm
CC(C)Oc1cccc(CCOc2ncnc3ccccc23)c1 [Example 146, 4-[2-[3-(1-methylethoxy)phenyl]ethoxy]quinazoline] | 60%
COc1cc(CCOc2ncnc3ccccc23)ccc1O [Example 147] | 0%
C=CC(CCc1ccccc1)Oc1ncnc2ccccc12 (centres unmarked) [Example 148, 4-[(1-benzyl-3-buten-2-yl)oxy]quinazoline] | 0%
CC(C)(C)c1ccc(CCCOc2ncnc3c(F)cccc23)cc1 [Example 149, 8-fluoro-4-[3-[4-(1,1-dimethylethyl)phenyl]propoxy]quinazoline] | 0%
c1ccc(Oc2ccc(CCCOc3ncnc4ccccc34)cc2)cc1 [Example 151, 4-[3-(4-phenoxyphenyl)propoxy]quinazoline] | 0%
CC(C)c1ccc(CCCOc2ncnc3c(F)cccc23)cc1 [Example 152, 8-fluoro-4-[3-[4-(1-methylethyl)phenyl]propoxy]quinazoline] | 60%

tested on: Puccinia recondita tritici (leaf rust); test: Greenhouse Test 1, foliar spray fungicide screen (LEAF RUST), host wheat; type: in vivo; details: disease control rating, 400 ppm (+++ at 100 ppm)

SMILES | LEAF RUST
CC(C)Oc1cccc(CCOc2ncnc3ccccc23)c1 [Example 146, 4-[2-[3-(1-methylethoxy)phenyl]ethoxy]quinazoline] | ++ (++ = 90-100% control at 400 ppm)
COc1cc(CCOc2ncnc3ccccc23)ccc1O [Example 147] | +++ (+++ = 90-100% control at 100 ppm)
C=CC(CCc1ccccc1)Oc1ncnc2ccccc12 (centres unmarked) [Example 148, 4-[(1-benzyl-3-buten-2-yl)oxy]quinazoline] | + (+ = 20-89% control at 400 ppm)
CC(C)(C)c1ccc(CCCOc2ncnc3c(F)cccc23)cc1 [Example 149, 8-fluoro-4-[3-[4-(1,1-dimethylethyl)phenyl]propoxy]quinazoline] | - (- = 0-19% control at 400 ppm)
c1ccc(Oc2ccc(CCCOc3ncnc4ccccc34)cc2)cc1 [Example 151, 4-[3-(4-phenoxyphenyl)propoxy]quinazoline] | - (- = 0-19% control at 400 ppm)
CC(C)c1ccc(CCCOc2ncnc3c(F)cccc23)cc1 [Example 152, 8-fluoro-4-[3-[4-(1-methylethyl)phenyl]propoxy]quinazoline] | + (+ = 20-89% control at 400 ppm)

tested on: Pyricularia oryzae (rice blast); test: not given; type: in vivo; details: disease control rating, foliar spray, host rice; 400 ppm (+++ at 100 ppm)

SMILES | RICE BLAST
CC(C)Oc1cccc(CCOc2ncnc3ccccc23)c1 [Example 146, 4-[2-[3-(1-methylethoxy)phenyl]ethoxy]quinazoline] | +++ (+++ = 90-100% control at 100 ppm)
COc1cc(CCOc2ncnc3ccccc23)ccc1O [Example 147] | - (- = 0-19% control at 400 ppm)
C=CC(CCc1ccccc1)Oc1ncnc2ccccc12 (centres unmarked) [Example 148, 4-[(1-benzyl-3-buten-2-yl)oxy]quinazoline] | ++ (++ = 90-100% control at 400 ppm)
CC(C)(C)c1ccc(CCCOc2ncnc3c(F)cccc23)cc1 [Example 149, 8-fluoro-4-[3-[4-(1,1-dimethylethyl)phenyl]propoxy]quinazoline] | - (- = 0-19% control at 400 ppm)
c1ccc(Oc2ccc(CCCOc3ncnc4ccccc34)cc2)cc1 [Example 151, 4-[3-(4-phenoxyphenyl)propoxy]quinazoline] | - (- = 0-19% control at 400 ppm)
CC(C)c1ccc(CCCOc2ncnc3c(F)cccc23)cc1 [Example 152, 8-fluoro-4-[3-[4-(1-methylethyl)phenyl]propoxy]quinazoline] | + (+ = 20-89% control at 400 ppm)

tested on: Erysiphe graminis tritici (powdery mildew); test: Greenhouse Test 1, foliar spray fungicide screen (POWD MDEW), host wheat; type: in vivo; details: disease control rating, 400 ppm (+++ at 100 ppm)

SMILES | POWD MDEW
CC(C)Oc1cccc(CCOc2ncnc3ccccc23)c1 [Example 146, 4-[2-[3-(1-methylethoxy)phenyl]ethoxy]quinazoline] | ++ (++ = 90-100% control at 400 ppm)
COc1cc(CCOc2ncnc3ccccc23)ccc1O [Example 147] | +++ (+++ = 90-100% control at 100 ppm)
C=CC(CCc1ccccc1)Oc1ncnc2ccccc12 (centres unmarked) [Example 148, 4-[(1-benzyl-3-buten-2-yl)oxy]quinazoline] | ++ (++ = 90-100% control at 400 ppm)
CC(C)(C)c1ccc(CCCOc2ncnc3c(F)cccc23)cc1 [Example 149, 8-fluoro-4-[3-[4-(1,1-dimethylethyl)phenyl]propoxy]quinazoline] | ++ (++ = 90-100% control at 400 ppm)
c1ccc(Oc2ccc(CCCOc3ncnc4ccccc34)cc2)cc1 [Example 151, 4-[3-(4-phenoxyphenyl)propoxy]quinazoline] | + (+ = 20-89% control at 400 ppm)
CC(C)c1ccc(CCCOc2ncnc3c(F)cccc23)cc1 [Example 152, 8-fluoro-4-[3-[4-(1-methylethyl)phenyl]propoxy]quinazoline] | +++ (+++ = 90-100% control at 100 ppm)

tested on: southern armyworm (Spodopetra eridania Cramer); test: Mite/insect screen, sprayed squash leaves (SAW); type: in vivo; details: Spodoptera eridania, percent mortality; spray rate 200 ppm; read-out: SAW RESULTS %
In short: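 Percent mortality and phytotoxicity are the read-outs, assessed after standard exposure periods. Test solutions, made in 50:50 acetone/alcohol with two sulfonate/nonionic emulsifier blends and diluted in water, are sprayed to runoff on both leaf surfaces, which then dry for one hour.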

SMILES | mortality at 200 ppm
CC(C)Oc1cccc(CCOc2ncnc3ccccc23)c1 [Example 146, 4-[2-[3-(1-methylethoxy)phenyl]ethoxy]quinazoline] | 0%
COc1cc(CCOc2ncnc3ccccc23)ccc1O [Example 147] | 0%
CC(C)(C)c1ccc(CCCOc2ncnc3c(F)cccc23)cc1 [Example 149, 8-fluoro-4-[3-[4-(1,1-dimethylethyl)phenyl]propoxy]quinazoline] | 0%
c1ccc(Oc2ccc(CCCOc3ncnc4ccccc34)cc2)cc1 [Example 151, 4-[3-(4-phenoxyphenyl)propoxy]quinazoline] | 0%
CC(C)c1ccc(CCCOc2ncnc3c(F)cccc23)cc1 [Example 152, 8-fluoro-4-[3-[4-(1-methylethyl)phenyl]propoxy]quinazoline] | 0%

same assay, conditions: Spodoptera eridania, percent mortality; spray rate 400 ppm; read-out: SAW RESULTS %

SMILES | mortality at 400 ppm
CC(C)Oc1cccc(CCOc2ncnc3ccccc23)c1 [Example 146, 4-[2-[3-(1-methylethoxy)phenyl]ethoxy]quinazoline] | 0%
COc1cc(CCOc2ncnc3ccccc23)ccc1O [Example 147] | 0%
C=CC(CCc1ccccc1)Oc1ncnc2ccccc12 (centres unmarked) [Example 148, 4-[(1-benzyl-3-buten-2-yl)oxy]quinazoline] | 0%
CC(C)(C)c1ccc(CCCOc2ncnc3c(F)cccc23)cc1 [Example 149, 8-fluoro-4-[3-[4-(1,1-dimethylethyl)phenyl]propoxy]quinazoline] | 0%
c1ccc(Oc2ccc(CCCOc3ncnc4ccccc34)cc2)cc1 [Example 151, 4-[3-(4-phenoxyphenyl)propoxy]quinazoline] | 0%
CC(C)c1ccc(CCCOc2ncnc3c(F)cccc23)cc1 [Example 152, 8-fluoro-4-[3-[4-(1-methylethyl)phenyl]propoxy]quinazoline] | 0%

tested on: Southern corn rootworm (Diabrotica undecimpuctata howardi Barber); test: Mite/insect screen, soil treatment (CRW); type: in vivo; details: Diabrotica; percent mortality; soil treatment, CRW rate 12.00 ppm; read-out: CRW RESULTS %
In short: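 Compounds dissolved in acetone/alcohol (50:50) with Toximul R/S emulsifiers, diluted with water. Soil (15 g, with presoaked corn seed) treated with 1 mL test solution, dried 6–12 h, then five 2–3 instar larvae added; held at 23°C. Percent mortality and phytotoxicity scored after standard exposure periods.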

SMILES | mortality at 12 ppm
CC(C)Oc1cccc(CCOc2ncnc3ccccc23)c1 [Example 146, 4-[2-[3-(1-methylethoxy)phenyl]ethoxy]quinazoline] | 0%
COc1cc(CCOc2ncnc3ccccc23)ccc1O [Example 147] | 0%
CC(C)(C)c1ccc(CCCOc2ncnc3c(F)cccc23)cc1 [Example 149, 8-fluoro-4-[3-[4-(1,1-dimethylethyl)phenyl]propoxy]quinazoline] | 0%
c1ccc(Oc2ccc(CCCOc3ncnc4ccccc34)cc2)cc1 [Example 151, 4-[3-(4-phenoxyphenyl)propoxy]quinazoline] | 0%
CC(C)c1ccc(CCCOc2ncnc3c(F)cccc23)cc1 [Example 152, 8-fluoro-4-[3-[4-(1-methylethyl)phenyl]propoxy]quinazoline] | 0%

same assay, conditions: Diabrotica; percent mortality; soil treatment, CRW rate 24.00 ppm; read-out: CRW RESULTS %

SMILES | mortality at 24 ppm
CC(C)Oc1cccc(CCOc2ncnc3ccccc23)c1 [Example 146, 4-[2-[3-(1-methylethoxy)phenyl]ethoxy]quinazoline] | 0%
COc1cc(CCOc2ncnc3ccccc23)ccc1O [Example 147] | 0%
C=CC(CCc1ccccc1)Oc1ncnc2ccccc12 (centres unmarked) [Example 148, 4-[(1-benzyl-3-buten-2-yl)oxy]quinazoline] | 0%
CC(C)(C)c1ccc(CCCOc2ncnc3c(F)cccc23)cc1 [Example 149, 8-fluoro-4-[3-[4-(1,1-dimethylethyl)phenyl]propoxy]quinazoline] | 0%
c1ccc(Oc2ccc(CCCOc3ncnc4ccccc34)cc2)cc1 [Example 151, 4-[3-(4-phenoxyphenyl)propoxy]quinazoline] | 0%
CC(C)c1ccc(CCCOc2ncnc3c(F)cccc23)cc1 [Example 152, 8-fluoro-4-[3-[4-(1-methylethyl)phenyl]propoxy]quinazoline] | 0%

tested on: Botrytis cinerea (gray mold); test: Greenhouse Test 1, foliar spray fungicide screen (GRAY MOLD), host grape berries; type: in vivo; details: disease control rating, 400 ppm (+++ at 100 ppm)

SMILES | GRAY MOLD
CC(C)Oc1cccc(CCOc2ncnc3ccccc23)c1 [Example 146, 4-[2-[3-(1-methylethoxy)phenyl]ethoxy]quinazoline] | + (+ = 20-89% control at 400 ppm)
COc1cc(CCOc2ncnc3ccccc23)ccc1O [Example 147] | - (- = 0-19% control at 400 ppm)
C=CC(CCc1ccccc1)Oc1ncnc2ccccc12 (centres unmarked) [Example 148, 4-[(1-benzyl-3-buten-2-yl)oxy]quinazoline] | - (- = 0-19% control at 400 ppm)
CC(C)(C)c1ccc(CCCOc2ncnc3c(F)cccc23)cc1 [Example 149, 8-fluoro-4-[3-[4-(1,1-dimethylethyl)phenyl]propoxy]quinazoline] | - (- = 0-19% control at 400 ppm)
c1ccc(Oc2ccc(CCCOc3ncnc4ccccc34)cc2)cc1 [Example 151, 4-[3-(4-phenoxyphenyl)propoxy]quinazoline] | - (- = 0-19% control at 400 ppm)
CC(C)c1ccc(CCCOc2ncnc3c(F)cccc23)cc1 [Example 152, 8-fluoro-4-[3-[4-(1-methylethyl)phenyl]propoxy]quinazoline] | - (- = 0-19% control at 400 ppm)

tested on: melon aphids (Aphis gossypii Glover); test: Mite/insect screen, sprayed squash cotyledons (MA); type: in vivo; details: Aphis gossypii, percent mortality; spray rate 200 ppm; read-out: MA RESULTS %
In short: as §1

SMILES | mortality at 200 ppm
CC(C)Oc1cccc(CCOc2ncnc3ccccc23)c1 [Example 146, 4-[2-[3-(1-methylethoxy)phenyl]ethoxy]quinazoline] | 100%
COc1cc(CCOc2ncnc3ccccc23)ccc1O [Example 147] | 50%
CC(C)(C)c1ccc(CCCOc2ncnc3c(F)cccc23)cc1 [Example 149, 8-fluoro-4-[3-[4-(1,1-dimethylethyl)phenyl]propoxy]quinazoline] | 0%
c1ccc(Oc2ccc(CCCOc3ncnc4ccccc34)cc2)cc1 [Example 151, 4-[3-(4-phenoxyphenyl)propoxy]quinazoline] | 80%
CC(C)c1ccc(CCCOc2ncnc3c(F)cccc23)cc1 [Example 152, 8-fluoro-4-[3-[4-(1-methylethyl)phenyl]propoxy]quinazoline] | 40%

same assay, conditions: Aphis gossypii, percent mortality; spray rate 400 ppm; read-out: MA RESULTS %

SMILES | mortality at 400 ppm
CC(C)Oc1cccc(CCOc2ncnc3ccccc23)c1 [Example 146, 4-[2-[3-(1-methylethoxy)phenyl]ethoxy]quinazoline] | 80%
COc1cc(CCOc2ncnc3ccccc23)ccc1O [Example 147] | 0%
C=CC(CCc1ccccc1)Oc1ncnc2ccccc12 (centres unmarked) [Example 148, 4-[(1-benzyl-3-buten-2-yl)oxy]quinazoline] | 0%
CC(C)(C)c1ccc(CCCOc2ncnc3c(F)cccc23)cc1 [Example 149, 8-fluoro-4-[3-[4-(1,1-dimethylethyl)phenyl]propoxy]quinazoline] | 0%
c1ccc(Oc2ccc(CCCOc3ncnc4ccccc34)cc2)cc1 [Example 151, 4-[3-(4-phenoxyphenyl)propoxy]quinazoline] | 0%
CC(C)c1ccc(CCCOc2ncnc3c(F)cccc23)cc1 [Example 152, 8-fluoro-4-[3-[4-(1-methylethyl)phenyl]propoxy]quinazoline] | 80%
